Laboratory results published in patent US20210069230A1, “SYNERGISTIC DRUG COMBINATIONS PREDICTED FROM GENOMIC FEATURES AND SINGLE-AGENT RESPONSE PROFILES” (THE BROAD INSTITUTE, INC., priority 2018, published 2021).
Read-outs that look alike come from different tables or passages of the source.

Experiments:
[1] = system: WM2664 cells overexpressing ABCB1; assay: Lentiviral ORF overexpression, compound sensitivity (CellTiter-Glo, GR); assay type: cell-based; conditions: 72 hours
Description: (§1) Cell lines were taken from viably frozen stocks of the same original provenance as for CTRP and DepMap data, with identity confirmed by SNP-based DNA fingerprinting as described previously (12, 13, 39). Cell lines were propagated using the same media and culture conditions as for CTRPv2.0 experiments. […] For live-cell imaging, cells were plated into clear-bottom plates (Corning) and imaged on an IncuCyte S3 throughout the course of the experiment. For CellTiter-Glo experiments, the initial viability of a subset of plated cells was established at the same time as compound addition using CellTiter-Glo as described previously (24). […] DMSO- and D0-normalized concentration-response curves were generated using four-parameter nonlinear regression using the drc package in R (40). Biphasic curves were also fit and prioritized relative to standard four-parameter curves where appropriate using the BIC (Bayesian information criteria) metric. […] General-purpose optimization (Nelder-Mean algorithm) was used for single-agent fits, and the “model” option was used to predict variance. Overall significance was assessed using the bootstrapped meanR test (n=1000 iterations), and per-concentration significance using maxR, as described by the package authors.
(§2) Infection and selection were carried out according to GPP Viral Infection protocols, followed by cell seeding in 384-well plates for compound treatment or harvesting for Western blotting as described above.
(§3) Parental cell lines were virally transduced with cDNAs that constitutively overexpressed BCL2L1, AIFM2, or MGLL (in G402 and CJM cells); ABCB1 or MGMT (in WM2664 cells); SLC7A11 (in BT12 and G402 cells); MCL1 (in HCC1500 cells); or IRS2 (in T47D cells) and subsequently drug sensitivity was measured. To account for potential differences in growth rates and to distinguish between cytostatic and cytotoxic drug responses, the normalized growth rate inhibition (GR) metric was used to assess cell viability (FIG. 3A) (18).

type IIA topoisomerases = conditions: cited from earlier work
[2] = system: G402, G402-MGLL and KMRC3 cells; assay: Chromatin-modifying compounds and GSK-J4 analogues with MGLL overexpression or JZL184 co-treatment; assay type: cell-based; conditions: for effect of JZL184 co-treatment on sensitivity: cells expressing MGLL
Description: as §1
To assess whether MGLL could augment sensitivity to other inhibitors of chromatin modifying enzymes, a panel of other small molecules annotated to inhibit chromatin-related processes, targeting other KDM proteins, histone deacetylases (HDACs), and histone methyltransferases (e.g., EZH2, DOT1L) was tested. […] The effects of a number of GSK-J4 analogues (FIG. 7B) were also tested.

[3] = cited from earlier work
KDM6 proteins = conditions: cited from earlier work
[4] = system: cell lines with high expression of the nominated protein; assay: 72-hour co-treatment of index compounds with co-target inhibitors; assay type: cell-based; conditions: single agent
Description: GAPDH was used as a loading control.
as §1

27 cell lines = assay: GSK-J4 with or without JZL184 in 27 cell lines (CellTiter-Glo); assay type: cell-based; conditions: individual validation experiments or the pooled PRISM assay
Description: as §1

[5] = target: Monoacylglycerol lipase (MAGL) (Mus musculus, UniProt O35678); conditions: dose of 16 mg/kg; cited from earlier work
242 cell lines in CTRPv1 = conditions: JZL184 alone; cited from earlier work
MGLL = MGLL (Homo sapiens, UniProt Q99685); assay: Recombinant protein/mass spec assay of MGLL-mediated modification; assay type: biochemical
From the text: The GSK-J4-modifying impact of MGLL is examined further via a recombinant protein/mass spec assay.

SIMA cell line = assay: KX2-391 response versus ABCB1 expression and activity (elacridar co-treatment); assay type: cell-based
From the text: FIGS. 14A to 14S present supporting data for co-inhibition experiments across additional compounds and cellular models, further to FIG. 3 above. […] FIG. 14R presents dependency data from the DepMap portal (www.depmap.org) for BCL2L1 as a function of BCL2L1 expression (blue to red) and measured sensitivity (GR50) to the BCL2L1 inhibitor WEHI-539. FIG. 14S presents dependency data from the DepMap portal (www.depmap.org) for MCL1 as a function of […] (blue to red) and measured sensitivity (GR50) to the MCL1 inhibitor S63845.
The instant approach can therefore be applied and extended in a number of ways. First, it can be used to identify potential resistance mechanisms that may contribute to relapse in initially responsive settings. Second, it can be used to prioritize combinations for increased initial efficacy if the co-target biomarker is already present, or to de-prioritize single-agent treatment where it is likely to be less efficacious, particularly where alternatives might exist. For example, drug efflux pump expression (e.g., of ABCB1, encoding P-glycoprotein) has been observed as a clinical mechanism of resistance to various chemotherapeutics (30). ABCB1 inhibitors were discontinued from clinical development, largely due to challenges with selectivity and on-target toxicity (31). […]

[6] = system: BT12 and G402 cells overexpressing SLC7A11; assay: Lentiviral ORF overexpression, compound sensitivity (CellTiter-Glo, GR); assay type: cell-based; conditions: 72 hours
Description: as §1, §2, §3

[7] = system: G402 and CJM cells overexpressing AIFM2; assay: as above; assay type: cell-based; conditions: 72 hours
Description: as §1, §2, §3

MEWO cell line = assay: CRISPR-Cas9 knockout of AIFM2, response to compound; assay type: cell-based; conditions: four different sgRNAs
Description: (§4) Cas9 stably-infected HEC1A, MEWO, SUIT2, and WM2664 cells and sgRNAs (pXPR_BRD003 vector) targeting AIFM2, IRS2, MGLL, or control guides (non-cutting) were acquired from the GPP (FIG. 23). Cell line identities were confirmed to match parental cells using SNP fingerprinting. Virus was generated and infection carried out as described above. After puromycin selection (3 μg/mL for MEWO, 1.5 μg/mL for WM2664, 2 μg/mL for SUIT2 and HEC1A), cells were seeded in 384-well plates for compound treatment or harvested for Western blotting as described above.
(§5) As small-molecule inhibitors were not available for AIFM2 or IRS2, CRISPR-Cas9 was used to knock out these genes in proficient cell lines.

[8] = system: WM2664 cells overexpressing MGMT; assay: Lentiviral ORF overexpression, compound sensitivity (live-cell imaging, GR); assay type: cell-based; conditions: 120 hours
Description: Cell lines were taken from viably frozen stocks of the same original provenance as for CTRP and DepMap data, with identity confirmed by SNP-based DNA fingerprinting as described previously (12, 13, 39). Cell lines were propagated using the same media and culture conditions as for CTRPv2.0 experiments. […] For live-cell imaging, cells were plated into clear-bottom plates (Corning) and imaged on an IncuCyte S3 throughout the course of the experiment. For CellTiter-Glo experiments, the initial viability of a subset of plated cells was established at the same time as compound addition using CellTiter-Glo as described previously (24). […] DMSO- and D0-normalized concentration-response curves were generated using four-parameter nonlinear regression using the drc package in R (40). […] Overall significance was assessed using the bootstrapped meanR test (n=1000 iterations), and per-concentration significance using maxR, as described by the package authors. […]
Parental cell lines were virally transduced with cDNAs that constitutively overexpressed BCL2L1, AIFM2, or MGLL (in G402 and CJM cells); ABCB1 or MGMT (in WM2664 cells); SLC7A11 (in BT12 and G402 cells); MCL1 (in HCC1500 cells); or IRS2 (in T47D cells) and subsequently drug sensitivity was measured. […]

[9] = system: HCC1500 cells overexpressing MCL1; assay: Lentiviral ORF overexpression, compound sensitivity (CellTiter-Glo, GR); assay type: cell-based; conditions: 72 hours
Description: as §1, §2, §3

WM2664 cells = assay: CRISPR-Cas9 knockdown of IRS2, response to compound; assay type: cell-based
Description: as §4, §5

MGLL, sequence (Q99685 whole entry): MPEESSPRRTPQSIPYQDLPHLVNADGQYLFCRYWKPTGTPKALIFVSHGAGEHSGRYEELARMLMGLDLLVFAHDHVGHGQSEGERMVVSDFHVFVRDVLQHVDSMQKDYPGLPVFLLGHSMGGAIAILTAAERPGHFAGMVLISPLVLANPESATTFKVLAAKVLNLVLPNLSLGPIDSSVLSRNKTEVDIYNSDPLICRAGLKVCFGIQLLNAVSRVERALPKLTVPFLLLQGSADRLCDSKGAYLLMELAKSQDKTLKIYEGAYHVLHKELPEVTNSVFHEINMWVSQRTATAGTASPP
Monoacylglycerol lipase (MAGL), sequence (O35678 whole entry): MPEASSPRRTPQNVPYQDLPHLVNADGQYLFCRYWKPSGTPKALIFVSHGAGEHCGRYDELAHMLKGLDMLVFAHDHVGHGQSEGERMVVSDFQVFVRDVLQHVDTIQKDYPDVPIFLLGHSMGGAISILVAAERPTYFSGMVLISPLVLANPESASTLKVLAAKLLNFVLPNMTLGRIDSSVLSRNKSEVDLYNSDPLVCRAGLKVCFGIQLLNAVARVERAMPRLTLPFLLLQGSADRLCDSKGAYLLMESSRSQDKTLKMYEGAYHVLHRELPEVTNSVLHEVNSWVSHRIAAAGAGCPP

Which “resistance (GR50 shift) conferred by ABCB1 overexpression” value [1] does the source give for `CC[C@@H]1C(=O)N(C)c2cnc(Nc3ccc(C(=O)NC4CCN(C)CC4)cc3OC)nc2N1C1CCCC1` [BI-2536] here?
The value was 40 fold.

For `O=C(O)c1cn(C2CC2)c2cc(N3CCNCC3)c(F)cc2c1=O` [Ciprofloxacin], which “targets prokaryotes more than eukaryotic topo IIs” value (type IIA topoisomerases) is on record?
Its value is “in excess of a thousandfold”.

Which “concentrations at which toxicity was shown” value [2] does the source give for `O=C(O)CCNc1cc(N2CCc3ccccc3CC2)nc(-c2ccccn2)n1` [GSK-J1] here?
Its value is > 20 µM.

What about the “effect of MGLL overexpression or JZL184 co-treatment/inhibition on toxicity” value [2] of the same compound?
The value was “not affected”.

What about the cellular permeability [3] of the same compound?
The cellular permeability was “cell-impermeable”.

Which “effect of MGLL overexpression or JZL184 co-treatment/inhibition on toxicity” value [2] does the source give for `O=C(O)CCNc1cc(N2CCc3ccccc3CC2)nc(-c2cccnc2)n1` [GSK-J2] here?
Its value is “not affected”.

What about the toxicity ([2]; at 80 μM) of the same compound?
Its toxicity is < 30%.

What about the “activity against KDM6” value (KDM6 proteins) of the same compound?
Its value is “inactive”.

For `CCOC(=O)CCNc1cc(N2CCc3ccccc3CC2)nc(-c2cccnc2)n1` [GSK-J5], which “effect of MGLL overexpression on toxicity” value [2] is on record?
Its value is “reduced toxicity”.

What about the “potency relative to GSK-J4” value [2] of the same compound?
Its value is “much less potent”.

What about the “effect of JZL184 co-treatment on sensitivity” value [2] of the same compound?
The value was “sensitized by JZL184”.

For `O=C(Oc1ccc([N+](=O)[O-])cc1)N1CCC(C(O)(c2ccc3c(c2)OCO3)c2ccc3c(c2)OCO3)CC1` [JZL184, 4-nitrophenyl 4-(dibenzo[d][1,3]dioxol-5-yl(hydroxy)methyl)piperidine-1-carboxylate], which “growth impact of combination partner on its own” value [4] is on record?
The value was “only modest growth impact”.

And the “effects of JZL184 alone” value (27 cell lines)?
The value was “very modest effects”.

What about the “blockade of MAGL” value [5] of the same compound?
The value was “near-complete blockade”.

And the dose-dependent toxicity (242 cell lines in CTRPv1)?
The dose-dependent toxicity was “did not demonstrate dose-dependent toxicity”.

Which results are given for `OCCCNc1cc(N2CCc3ccccc3CC2)nc(-c2ccccn2)n1` [KDOBA67]?
toxicity relative to GSK-J4 ([2]; MGLL-deficient cell lines): equivalent toxicity; effect of JZL184 co-treatment on sensitivity [2]: could not be further sensitized; potency relative to GSK-J4 ([2]; resistant lines that expressed MGLL either endogenously or ectopically): more potent; MGLL-mediated modification (MGLL): no modification; cellular permeability [3]: cell-permeable

With `O=C(Cc1ccc(-c2ccc(OCCN3CCOCC3)cc2)cn1)NCc1ccccc1` [KX2-391] as the compound, how does the “relation of response to ABCB1” value (SIMA cell line) read?
The value was “not correlated with ABCB1 expression or affected by the presence of active ABCB1 protein”.

With `Cc1onc(C(=O)N2CCN(C(c3ccc(Cl)cc3)c3ccc(Cl)cc3)CC2)c1[N+](=O)[O-]` [ML210] as the compound, how does the “resistance (GR50 shift) conferred by SLC7A11 overexpression” value [6] read?
Its value is 8 fold.

And the “resistance (GR50 shift) conferred by AIFM2 overexpression” value [7]?
The value was > 500 fold.

What about the “effect of targeting AIFM2 with sgRNAs on response” value (MEWO cell line) of the same compound?
The value was “sensitization”.

Which “resistance (GR50 shift) conferred by SLC7A11 overexpression” value [6] does the source give for `O=C1C2CCN(CC2)C1(CO)CO` [PRIMA-1] here?
The value was 20 fold.

And the “resistance (GR50 shift) conferred by AIFM2 overexpression” value [7]?
Its value is “approximately threefold”.

For `CC(C)(C)c1cnc(CSc2cnc(NC(=O)C3CCNCC3)s2)o1` [SNS-032], which “resistance (GR50 shift) conferred by ABCB1 overexpression” value [1] is on record?
Its value is 25 fold.

With `O=NN(CCCl)C(=O)NCCCl` [carmustine] as the compound, how does the “resistance (GR50 shift) conferred by MGMT overexpression” value [8] read?
Its value is 4 fold.

Which “resistance (GR50 shift) conferred by SLC7A11 overexpression” value [6] does the source give for `CCOc1ccccc1-n1c(C(C)N2CCN(C(=O)COc3ccc(Cl)cc3)CC2)nc2ccccc2c1=O` (stereo not drawn) [erastin] here?
Its value is 30 fold.

With `CC1(C)CCC(c2ccc(Cl)cc2)=C(CN2CCN(c3ccc(C(=O)NS(=O)(=O)c4ccc(N[C@H](CCN5CCOCC5)CSc5ccccc5)c(S(=O)(=O)C(F)(F)F)c4)cc3)CC2)C1` [navitoclax] as the compound, how does the “resistance (GR50 shift) conferred by MCL1 overexpression” value [9] read?
Its value is 100 fold.

For `CC(=O)O[C@H]1C(=O)[C@@]2(C)[C@H]([C@H](OC(=O)c3ccccc3)[C@]3(O)C[C@H](OC(=O)[C@H](O)[C@@H](NC(=O)c4ccccc4)c4ccccc4)C(C)=C1C3(C)C)[C@]1(OC(C)=O)CO[C@@H]1C[C@@H]2O` [paclitaxel], which “resistance (GR50 shift) conferred by ABCB1 overexpression” value [1] is on record?
The value was 50 fold.

Which “effect of knockdown of IRS2 on response” value (WM2664 cells) does the source give for `CS(=O)(=O)N1CCN(Cc2cc3nc(-c4cccc5[nH]ncc45)nc(N4CCOCC4)c3s2)CC1` [pictilisib] here?
The value was “modest but consistent sensitization”.

For `CC(C)=CC[C@@H](O)C1=CC(=O)c2c(O)ccc(O)c2C1=O` [shikonin], which “resistance (GR50 shift) conferred by SLC7A11 overexpression” value [6] is on record?
Its value is 10 fold.
